The target of data set [1] is T1, HPK1 (Homo sapiens (Human), UniProt Q92918). Description: HPK1 enzyme activity detection (1 mM ATP system), ADP-Glo, Pharmacological Experiment 1. The format is biochemical. On the procedure:
Pharmacological Experiment 1: HPK1 Enzyme Activity Detection (1 mM ATP System)
• (1) Take ADP-GloTMKinase Assay Kit (Promega, Cat. No. V9102) to prepare 4× kinase buffer. • (2) Compound gradient dilution: The compound to be tested is diluted 3-fold, and 11 gradient concentrations are set, and each concentration is set for duplicate well detection. Serial dilutions were made in a 384-well plate to the corresponding 100×final concentration solution, and then 0.1 μL was transferred to the 384-well reaction plate for testing using Echo. Transfer 0.1 μL of 100% DMSO to the smallest and largest wells. • (3) Prepare HPK1 enzyme working solution using 4× kinase buffer. • (4) Add 5 μL of HPK1 enzyme working solution to each well and 5 μL of 1× kinase buffer to the smallest well. Centrifuge at 1000 rpm for 1 min and incubate at 25° C. for 15 min. • (5) During the incubation period, prepare the substrate working solution using 4× kinase buffer. • (6) Add 5 μL of substrate working solution containing 1 mM ATP to each well of the reaction plate, centrifuge at 1000 rpm for 1 min, and incubate at 25° C. for 60 min. • (7) At the end of incubation, add 5 μL of ADP Glo reagent to each well. Centrifuge at 1000 rpm for 1 min and incubate at 25° C. for 60 min. • (8) Add 10 μL of detection solution to each well, centrifuge at 1000 rpm for 1 min, and incubate at 25° C. for 60 min. • (9) Read using EnVision.
Inhibition rate calculation formula:
[formula] • Vehicle: Reading value of DMSO control well • Blank: No enzyme well reading • Largest well: Reading value of DMSO control well • Minimum well: No enzyme well reading
The log value of the concentration was used as the X-axis and the percentage inhibition rate was used as the Y-axis. The “log (inhibitor) vs. response—variable slope” of the analysis software GraphPad Prism 5 was used to fit the dose-effect curve to obtain the IC 50 value of the compound's inhibition of kinase binding.
See Table 1 for the enzymatic IC 50 data of the example compounds on HPK1.

The next data set deals with Jurkat cells. Description: Jurkat IL-2 secretion detection (anti-CD3/CD28 beads, ELISA). As to conditions: for Maximum induction factor: IL-2 secretion, Jurkat cells; for EC3x: concentration for IL-2 secretion of Jurkat cells to reach 3 times the baseline, 20 h. The format is cell-based, human. The method, then: Pharmacological Experiment 5: Jurkat IL-2 Secretion Detection
• (1) Take the cultured Jurkat cells, adjust the density to 1×10^6 cells/mL, and inoculate them in a flat-bottom […] plate (Jet Biofil, TCP011096), with 100 μL per well, • (2) Add 50 μL of the test compound to each well and incubate at 37° C. for 30 min; • (3) Take human anti-CD3/CD28 magnetic beads (Miltenyi, 130-091-441), wash once with RPMI-1640 complete medium, and adjust the density to 4×106 beads/mL for later use; • (4) After the compound incubation, 50 μL of anti-human CD3/CD28 magnetic beads were added to each well and cultured at 37° C. for 20 h, • (5) The cell culture supernatant was obtained and the IL-2 secretion was detected using the Human IL-2 DuoSet ELISA kit (R&D, DY008); • (6) The log value of the concentration was used as the X-axis and the IL-2 secretion was used as the Y-axis. The “log (agonist) vs. response-variable slope” equation of the analysis software GraphPad Prism 7 was used to fit the dose-effect curve, thereby obtaining the […] and the […]

For data set [2], the target named is T1, HPK1. Description: HPK1 enzyme activity detection (1 mM ATP system), ADP-Glo with MBP substrate, Pharmacological Experiment 2. It counts as biochemical. Summed up: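 Compound in DMSO preincubated with HPK1 for 15 min at 25 °C, then reaction started with ATP (1 mM system) and MBP substrate for 60 min at 25 °C. ADP formed quantified by ADP-Glo luminescence; IC50 derived from percentage inhibition.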
In general terms: ADP-Glo turns the ADP formed in a reaction into a luminescent signal.

The next data set deals with GLK (Homo sapiens (Human), UniProt Q8IVH8). Description: GLK kinase assay (1 mM ATP system), ADP-Glo. The format is biochemical. A digest of the protocol:
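GLK kinase reaction with 1 mM ATP and MBP substrate ran 60 min at 25 °C after 15 min preincubation of enzyme with compound. ADP formed was detected by ADP-Glo luminescence; percent inhibition used to derive IC50.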

The subject of data set [3] is human peripheral blood mononuclear cells. Description: Detection of IFN-γ secretion in human peripheral blood mononuclear cells (anti-CD3/CD28 beads, ELISA). It counts as cell-based. The settings on record: for Maximum induction factor: IFN-γ secretion, human PBMC; for EC3x: concentration for IFN-γ secretion of human PBMC to reach 3 times the baseline, 3 days. On the procedure: Pharmacological Experiment 4: Detection of IFN-γ Secretion in Human Peripheral Blood Monocytes
• (1) Take human peripheral blood mononuclear cells frozen in liquid nitrogen, thaw in a 37° C. water bath, add 5 mL of preheated RPMI-1640 complete medium (containing 10% fetal bovine serum and penicillin/streptomycin), centrifuge at 500 g for 10 minutes, and discard the supernatant; • (2) Resuspend the cells in RPMI-1640 complete medium, adjust the density to 5×10^6 cells/mL, inoculate in a low-adhesion 6-well plate (Corning, 3471), and culture at 37° C. for 2 days; • (3) Collect cultured human peripheral blood mononuclear cells, centrifuge at 500 g for 10 min, and discard the supernatant; • (4) Resuspend the cells in RPMI-1640 complete medium, adjust the density to 1×10^6 cells/mL, and inoculate them in a round-bottom 96-well plate (Jet Biofil, TCP-002-096), with 100 μL per well; • (5) Add 50 μL of the test compound to each well and incubate at 37° C. for 30 min; • (6) Take human anti-CD3/CD28 magnetic beads (Miltenyi, 130-091-441), wash once with RPMI-1640 complete medium, and adjust the density to 0.5×106 beads/mL for later use; • (7) After the compound incubation, 50 μL of anti-human CD3/CD28 magnetic beads were added to each well and cultured at 37° C. for 3 days, • (8) The cell culture supernatant was obtained and the IFN-γ secretion was detected using the Human IFN-gamma DuoSet ELISA kit (R&D, DY285B-05); • (9) The log value of concentration was used as the X-axis and the IFN-γ secretion amount was used as the Y-axis. The “log (agonist) vs. response−variable slope” equation of the analysis software GraphPad Prism 7 was used to fit the dose-effect curve, thereby obtaining the EC3x value and the maximum induction factor of the compound for the secretion of IFN-γ from human peripheral blood mononuclear cells to reach 3 times the baseline.
Background: In an ELISA, binding on a coated surface is turned into a signal by an enzyme label.

The nature of data set [4]: PK study of compound in dogs. The format is in vivo. As to conditions: Beagle dog, PO 5 mg/kg, DMSO/Solutol/saline. On the procedure:
Pharmacological Experiment 6: PK Study of Compound in Dogs The compound was mixed with a solvent of saline or 10% DMSO/5% Solutol/85% saline or 10% DMSO/10% Solutol/80% saline (specific solvents are shown in the table below), vortexed and sonicated to prepare a clear oral solution. […] The drug concentration was analyzed by LC-MS/MS method, and the pharmacokinetic parameters were calculated using Phoenix WinNolin software (Pharsight, USA).

T1 sequence (Q92918 whole entry, species assumed): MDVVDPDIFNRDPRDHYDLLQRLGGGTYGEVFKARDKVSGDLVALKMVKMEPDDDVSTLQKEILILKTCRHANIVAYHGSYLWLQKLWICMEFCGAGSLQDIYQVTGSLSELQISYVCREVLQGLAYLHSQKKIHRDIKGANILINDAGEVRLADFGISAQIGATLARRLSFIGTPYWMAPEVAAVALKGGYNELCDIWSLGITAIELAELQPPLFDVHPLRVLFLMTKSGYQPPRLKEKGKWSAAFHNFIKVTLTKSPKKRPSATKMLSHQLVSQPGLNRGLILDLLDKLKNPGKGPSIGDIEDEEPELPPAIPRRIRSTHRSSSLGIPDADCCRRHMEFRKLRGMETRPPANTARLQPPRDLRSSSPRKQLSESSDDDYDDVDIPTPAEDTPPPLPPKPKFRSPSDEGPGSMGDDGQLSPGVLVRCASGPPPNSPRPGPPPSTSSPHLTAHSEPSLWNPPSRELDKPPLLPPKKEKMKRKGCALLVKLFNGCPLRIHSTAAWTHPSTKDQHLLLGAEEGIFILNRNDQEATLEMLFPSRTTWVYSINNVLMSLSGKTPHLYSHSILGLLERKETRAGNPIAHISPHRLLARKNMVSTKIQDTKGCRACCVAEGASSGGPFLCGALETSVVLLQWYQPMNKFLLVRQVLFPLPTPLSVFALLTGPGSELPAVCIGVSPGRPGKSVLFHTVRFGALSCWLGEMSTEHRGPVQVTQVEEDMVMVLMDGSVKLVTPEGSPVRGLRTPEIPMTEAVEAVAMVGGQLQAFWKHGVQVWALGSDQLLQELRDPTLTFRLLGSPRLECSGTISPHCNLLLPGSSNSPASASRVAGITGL
Sequence of GLK (Q8IVH8 whole entry, species assumed): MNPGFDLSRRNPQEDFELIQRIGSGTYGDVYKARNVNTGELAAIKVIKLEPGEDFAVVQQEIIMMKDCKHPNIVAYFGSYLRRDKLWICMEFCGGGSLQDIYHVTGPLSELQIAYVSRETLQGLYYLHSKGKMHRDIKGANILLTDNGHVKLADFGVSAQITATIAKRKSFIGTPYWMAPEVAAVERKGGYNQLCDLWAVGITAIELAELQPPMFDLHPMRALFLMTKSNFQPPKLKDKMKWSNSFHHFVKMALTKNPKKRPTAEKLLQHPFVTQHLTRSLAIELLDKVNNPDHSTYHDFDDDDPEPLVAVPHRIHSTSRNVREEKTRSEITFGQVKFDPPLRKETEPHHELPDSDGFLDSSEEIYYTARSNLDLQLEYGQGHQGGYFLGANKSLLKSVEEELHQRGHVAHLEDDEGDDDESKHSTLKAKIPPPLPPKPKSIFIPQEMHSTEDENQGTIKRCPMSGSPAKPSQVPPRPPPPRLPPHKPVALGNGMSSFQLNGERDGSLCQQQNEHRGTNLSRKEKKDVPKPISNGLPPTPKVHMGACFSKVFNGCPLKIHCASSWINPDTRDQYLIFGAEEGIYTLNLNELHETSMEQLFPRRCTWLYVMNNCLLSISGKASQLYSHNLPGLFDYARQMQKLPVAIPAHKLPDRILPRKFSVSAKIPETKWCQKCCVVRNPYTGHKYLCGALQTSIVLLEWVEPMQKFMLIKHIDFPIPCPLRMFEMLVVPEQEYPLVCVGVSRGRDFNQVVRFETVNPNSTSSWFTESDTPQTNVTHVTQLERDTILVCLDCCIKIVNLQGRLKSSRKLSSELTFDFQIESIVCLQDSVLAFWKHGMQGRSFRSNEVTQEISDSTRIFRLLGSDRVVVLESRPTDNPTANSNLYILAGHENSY

One may read the IC50 as the concentration that inhibits the measured activity by half. A high value points to lower potency. In turn, `CN(C)C1CCC2(CCOCC2)c2ccc(Nc3ccc(-c4cnc5cc(F)ccn45)c4c3C(=O)NC4)cc21` (centres unmarked) [Compound 1] displayed an IC50 on HPK1 [1] of 0.0612 µM.
In the case of `CN(C)C1CC2(CCOCC2)c2ccc(Nc3ccc(-c4cnc5cc(F)ccn45)c4c3C(=O)NC4)nc21` (centres unmarked) [Compound 2, 7-(7-(DIMETHYLAMINO)-2′,3′,5′,6,6′,7-HEXAHYDROSPIRO[CYCLOPENTYL]PYRIDINE-5,4′-PYRAN]-2-YL)AMINO)-4 (7-FLUOROIMIDAZOLE[1,2-A]PYRIDIN-3-YL)ISOINDOL-1-ONE], the IC50 is 0.00701 µM on HPK1 [1], 0.0112 µM on HPK1 [2] and 1.17 µM against GLK. Besides, the Maximum induction factor stood at 10 with Jurkat cells and 5.9 in data set [3]. Also, the “EC3x” value was determined as 345 nM with Jurkat cells and 69 nM in data set [3].
In turn, `CN(C)C1CC2(CCOCC2)c2ccc(Nc3ccc(-c4cnc5cc(F)ccn45)c4c3C(=O)NC4)cc21` (centres unmarked) [Compound 9] showed an IC50 on HPK1 [1] of 0.205 µM.
With `Cc1cc(Nc2cnc(-c3ccnc4c3ccn4C)c3c2C(=O)NC3)cc2c1C1(CCOCC1)CN(C)C2` [Compound 14], the IC50 against HPK1 [1] is 0.0548 µM.
At HPK1 [1], `Cc1cc(Nc2ccc(-c3cnc4cc(F)ccn34)c3c2C(=O)NC3)cc2c1C1(CCOCC1)CN(C)C2` [Compound 15] came in with an IC50 of 0.00614 µM.
The same measure, in the same setting: to `Cc1cc(Nc2ccc(-c3cnc4cc(F)ccn34)c3c2C(=O)NC3)cc2c1C1(CC1)CN(C)C2` [Compound 16] belongs 0.0206 µM.
As for `O=C1NCc2c(-c3cnc4cc(F)ccn34)ccc(Nc3ccc4c(n3)C(N3CCCC3)CC43CCOCC3)c21` (centres unmarked) [Compound 40, 4-(7-FLUOROIMIDAZO[1,2-A]PYRIDIN-3-YL)-7-((7-(PYRROLIDIN-1-YL)-2′,3′,5′,6,6′,7-HEXAHYDROSPIRO[B]PYRIDIN-5,4′-PYRAN]-2-YL)AMINO)ISOINDOLIN-1-ONE], in the data set with Jurkat cells, the Maximum induction factor is listed as 11.5 and the “EC3x” value amounted to 163 nM. In addition, it took 0.0048 µM to reach half-maximal inhibition against HPK1 [2] (IC50).
Take `CC(C)NC1CC2(CCOCC2)c2ccc(Nc3ccc(-c4cnc5cc(F)ccn45)c4c3C(=O)NC4)nc21` (centres unmarked) [Compound 104]: in the data set with Jurkat cells, the Maximum induction factor is reported as 8.3 and the “EC3x” value is recorded as 172 nM. The IC50 against HPK1 [2] is 0.00349 µM. Also, half-maximal inhibition against GLK (IC50) required 0.551 µM.
For `O=C1NCc2c(-c3cnc4cc(F)ccn34)ccc(Nc3ccc4c(n3)C(NC3CCOCC3)CC43CCOCC3)c21` (centres unmarked) [Compound 108], in that order: 8.4, 448 nM, 0.00329 µM and 1.05 µM.
At HPK1 [2], `O=C1NCc2c(-c3cnc4cc(F)ccn34)ccc(Nc3ccc4c(n3)CCCC43CCC3)c21` [Compound 125] registered an IC50 of 0.0111 µM. In addition, half-maximal inhibition against GLK (IC50) was put at 1.2 µM. In data set [3], the Maximum induction factor came out at 20.2 and the “EC3x” value is listed as 173 nM.
Turning to `O=C1NCc2c(-c3cnc4cc(F)ccn34)ccc(Nc3ccc4c(n3)CCCC43CCCC3)c21` [Compound 127], the IC50 against HPK1 [2] came out at 0.00523 µM. This molecule also registered an IC50 on GLK of 0.767 µM. In addition, in data set [3], the Maximum induction factor is 19.1 and the “EC3x” value is listed as 74.6 nM.
On to `CN(C)C1CC2(CCOC2)c2ccc(Nc3ccc(-c4cnc5cc(Cl)ccn45)c4c3C(=O)NC4)nc21` (centres unmarked) [Compound 151], for which it took 0.00634 µM to reach half-maximal inhibition on HPK1 [2] (IC50). The IC50 against GLK was determined as 0.97 µM. Besides, in data set [3], the Maximum induction factor was 6.5 and the “EC3x” value stood at 53 nM.
`CN(C)[C@@H]1CC2(CCOCC2)c2ccc(Nc3ccc(-c4cnc5cc(OC(F)F)ccn45)c4c3C(=O)NC4)nc21` [Compound 158A, (R)-4-(7-(DIFLUOROMETHOXY)IMIDAZOL 1,2-A]PYRIDIN-3-YL)-7-((7-DIMETHYLAMINO)-2′,3′,5′,6,6′,7-HEXAHYDROSPIRO[CYCLOPENTADIENYL[B]PYRIDINE-54′-PYRAN]-2-YL)AMINO)ISOINDOLIN-1-ONE]: at HPK1 [2], half-maximal inhibition (IC50) was put at 0.003 µM. Further, at GLK, the IC50 stood at 0.206 µM. Further, in data set [4], the “Bioavailability F %” value is listed as 43%, the “PO Plasma AUC” value was 2.704 µg·h/mL and the “T1/2” value turned out to be 6.06 h. Further, in data set [3], the Maximum induction factor is recorded as 10.8 and the “EC3x” value is listed as 167 nM.
In the case of `Cc1ccn2c(-c3ccc(Nc4ccc5c(n4)C(N(C)C)CC54CCOCC4)c4c3CNC4=O)cnc2c1` (centres unmarked) [Compound 161], half-maximal inhibition on HPK1 [2] (IC50) was put at 0.00357 µM. This molecule also came in with an IC50 against GLK of 0.311 µM. For the same molecule, in data set [3], the Maximum induction factor worked out at 6.4 and the “EC3x” value is given as 67 nM.
For the molecule `CN(C)C1CC2(CCOCC2)c2ccc(Nc3ccc(-c4cnc5cc(C6CC6)ccn45)c4c3C(=O)NC4)nc21` (centres unmarked) [Compound 164, 4-(7-CYCLOPROPYLIMIDAZO[1,2-A]PYRIDIN-3-YL)-7-((7-(DIMETHYLAMINO)-2′,3′,5′,6,6′,7-HEXAHYDROSPIRO[CYCLOPENTANE[B]PYRIDINE-5,4′-PYRAN]-2-YL)AMINO)ISOINDOL-1-ONE], the values for the IC50 against HPK1 [2] and at GLK were 0.0106 µM and 0.105 µM, respectively. Also, the Maximum induction factor in data set [3] turned out to be 9.2. Further, the “EC3x” value in data set [3] was 458 nM.

Values taken from patent US20250361241A1, “HPK1 INHIBITOR AND MEDICAL USE THEREOF” (Betta Pharmaceuticals Co., Ltd., priority 2022, published 2025).
